Patent publication US5091299A, “An enzyme electrode for use in organic solvents” (priority 1987, dated 1992)
Values joined by “and” are separate entries in the source; they are usually repeats but may differ in a detail not shown here. Equal entries are not always repeated.

Columns and labels:
[1] = tested on: Polyphenol oxidase (tyrosinase); experiment: Electrode specificity, response of the enzyme electrode to ten phenols; type: biochemical; settings: phenol 100 μM, single electrode, chloroform
[2] = tested on: Polyphenol oxidase (tyrosinase); experiment: Calibration of the polyphenol oxidase enzyme electrode with p-cresol in chloroform; settings: after addition of p-cresol, -275 mV vs SCE
[3] = tested on: Polyphenol oxidase (tyrosinase); experiment: Storage stability of the enzyme electrode, response to p-cresol; settings: p-cresol 200 μM
[4] = tested on: Polyphenol oxidase (tyrosinase); experiment: Operational stability of the enzyme electrode, sixteen consecutive p-cresol assays; settings: p-cresol 100 μM
[5] = room temp. (20° C.), stored dry
[6] = room temp. (20° C.), stored in CHCl3

In the case of `Oc1ccc(Cl)cc1` [4-chlorophenol], the Electrode response [1] is reported as 3.1 μA.

In the case of `Cc1ccc(O)c(O)c1` [4-methylcatechol], the Electrode response [1] is reported as 6.7 μA.

With `Oc1ccccc1O` [catechol] the Electrode response [1] was 8.6 μA.

For `Cc1cccc(O)c1` [m-cresol], the Electrode response [1] was 4.7 μA.

In the case of `O=Cc1cccc(O)c1` [m-hydroxy-benzaldehyde], the Electrode response [1] is reported as 0.0 μA and the “whether the electrode responded” value [1] is reported as “responded to all the phenols tested except”.

With `Cc1ccccc1O` [o-cresol] the Electrode response [1] was 0.0 μA and the “whether the electrode responded” value [1] was “responded to all the phenols tested except”.

For `Nc1ccc(O)cc1` [p-aminophenol], the Electrode response [1] was 2.4 μA.

In the case of `Cc1ccc(O)cc1` [p-cresol], the “time for the current increase to reach a steady value” [2] is reported as 3 to 5 min, the Electrode response [1] is reported as 5.6 μA and the Initial response ([3]; 5° C., stored dry) is reported as 4.3 μA and 3.7 μA. The “Response after 3 days” value ([3]; 5° C., stored dry) was 4.4 μA and 4.5 μA, the “Response after 48 days” value ([3]; 5° C., stored dry) was 4.7 μA and 3.5 μA and the Initial response ([3]; 5° C., stored in CHCl3) was 4.8 μA and 3.8 μA. The “Response after 3 days” value ([3]; 5° C., stored in CHCl3) was 8.1 μA and 9.5 μA, the “Response after 48 days” value ([3]; 5° C., stored in CHCl3) was 10.0 μA and 7.6 μA and the decrease in response ([3]; electrodes stored at 5° C.) was “no significant decrease”. For the same compound, the “average loss of activity (of the response)” value ([3]; electrodes stored at room temperature, after three days) was 30%, the Initial response [3, 5] was 5.2 μA and 4.8 μA and the “Response after 3 days” value [3, 5] was 6.8 μA and 5.4 μA. For the same compound, the “Response after 48 days” value [3, 5] was 3.6 μA and 2.8 μA, the Initial response [3, 6] was 4.0 μA and 4.2 μA and the “Response after 3 days” value [3, 6] was 7.0 μA and 7.2 μA. The “Response after 48 days” value [3, 6] was 5.5 μA and 6.5 μA, the “Electrode response after the first three assays” value [4] was 4.0 μA and the “Electrode response, first assay” value ([4]; start of series of sixteen assays) was 1.9 μA. For the same compound, the “Electrode response over the next eleven assays” value ([4]; started to fall after assay fourteen) was “remained stable”.

`O=Cc1ccc(O)cc1` [p-hydroxy-benzaldehyde] was tested, and the Electrode response [1] was 0.0 μA and the “whether the electrode responded” value [1] was “responded to all the phenols tested except”.

`Oc1ccccc1` [phenol] was tested, and the Electrode response [1] was 6.4 μA.
